Results published in patent publication US20190374506A1, “COMPOSITIONS AND METHODS FOR TREATING CANCER” (BETH ISREAL DEACONESS MEDICAL CENTER, priority 2016, published 2019).

How the values were obtained:
[1] = tested on: WWP1/NEDD4-1 E3 mediated PTEN K27-linked poly-ubiquitination; test: In vivo ubiquitination assay (Ni-NTA pull down, western blot) in DU145 cells; assay type: cell-based, human; details: 10 μM or 20 μM I3C for 4 Days
Description: DU145 cells expressing indicated plasmids were treated with 10 μM or 20 μM of I3C for 4 Days. The ubiquitinated PTEN was pulled down under denaturing conditions by Ni-NTA agarose and analysed by the western blot. Whether targeting WWP1/NEDD4-1, thereby enhancing PTEN dimerization and function, could offer a unique opportunity to treat MYC-driven cancers was investigated. […] As there is no small pharmacological inhibitor currently available to suppress/inhibit WWP1 activity, Indole-3-Carbinol (I3C), a potential WWP1 inhibitor, which suppresses the WWP1 activity through binding to its HECT domain, was used. First, to assess the on-target effects of I3C towards WWP1, Wwp1^−/− MEFs were used. […] Additionally, two independent PTEN stably knocked-down cells were generated. […] To analyse in vivo ubiquitination of PTEN, cells were transfected with various constructs, together with His-Ubiquitin and Myc-PTEN. Cells were lysed by buffer A (6 M guanidine-HCl, Na2HPO4/NaH2PO4 [pH 8.0], and 10 mM imidazole), and lysates were incubated with Ni-NTA agarose for 1.5 hours at 4° C. The beads were washed once with buffer A, twice with buffer ANTI (1 vol buffer A: 3 vol buffer TI [25 mM Tris-HCl, pH 6.8, and 20 mM imidazole]), and three times with buffer TI, and then analysed by western blot. In all experiments, an equal amount of His-Ubiquitin expression was verified by western blot analysis.

[2] = tested on: PTEN subcellular localization in DU145 cells; test: Confocal immunofluorescence of PTEN subcellular localization in DU145 cells; assay type: cell-based, human; details: 20 μM I3C for 4 Days
Description: FIG. 10D provides a panel of micrographs showing the effects of I3C on PTEN subcellular localization in DU145 cells. DU145 cells treated with 20 μM I3C for 4 Days. Confocal images of DU145 cells treated with/without I3C were stained with DAPI and the indicated antibodies. Bar, 20 μm. Whether targeting WWP1/NEDD4-1, thereby enhancing PTEN dimerization and function, could offer a unique opportunity to treat MYC-driven cancers was investigated. […] As there is no small pharmacological inhibitor currently available to suppress/inhibit WWP1 activity, Indole-3-Carbinol (I3C), a potential WWP1 inhibitor, which suppresses the WWP1 activity through binding to its HECT domain, was used. First, to assess the on-target effects of I3C towards WWP1, Wwp1^-/- MEFs were used. […] Additionally, two independent PTEN stably knocked-down cells were generated. […] PC3 and DU145 cells stably expressing the indicated constructs were plated on coverslip. The following day, cells were washed with ice-cold PBS, fixed in 4% paraformaldehyde, permeabilized with 0.02% Triton X-100, and then blocked with PBS supplemented with 20% goat serum. Cells were incubated with anti-PTEN antibody (6H2.1, 1:100) from Cascade Bioscience, diluted in PBS containing 10% goat serum overnight and then with Alexa488-conjugated secondary antibody together with 1 μg/ml of DAPI for 1 hour. Images were acquired with a […] […]

DU145 cells = test: Growth curves, colorimetric MTT assay, DU145 cells; assay type: cell-based, human; details: various doses of I3C for 5 Days
Description: FIG. 11C provides growth curves of DU145 (PTEN competent) or PC3 cells (PTEN null) treated with various doses of I3C for 5 Days, and then assayed with colorimetric MTT assay (three experiments). Whether targeting WWP1/NEDD4-1, thereby enhancing PTEN dimerization and function, could offer a unique opportunity to treat MYC-driven cancers was investigated. […] As there is no small pharmacological inhibitor currently available to suppress/inhibit WWP1 activity, Indole-3-Carbinol (I3C), a potential WWP1 inhibitor, which suppresses the WWP1 activity through binding to its HECT domain, was used. First, to assess the on-target effects of I3C towards WWP1, Wwp1^−/− MEFs were used. […] Additionally, two independent PTEN stably knocked-down cells were generated.

[3] = tested on: DU145 cells stably expressing MYC or vector control; test: Growth curves, MTT assay, DU145 cells stably expressing MYC or vector control; assay type: cell-based, human
Hi-Myc prostate spheres = test: Prostate sphere forming ability of WT or Hi-Myc prostatic epithelial cells; assay type: cell-based, mouse; details: Hi-Myc spheres at P1 passage, 10 μM I3C for 3 Day (low dose)
[4] = tested on: AKT activation in prostate spheres; test: Western blot analysis of prostate spheres at P1 passage; assay type: cell-based, mouse; details: 20 μM I3C for 3 Days (low dose)
Description: FIG. 11G is a Western blot analysis of prostate spheres at P1 passage treated with 20 μM I3C for 3 Days.

OCc1c[nH]c2ccccc12 [I3C, indole-3-carbinol]
PTEN K27-linked poly-ubiquitination [1]: robustly diminished
PTEN plasma membrane localization [2]: induced its plasma membrane accumulation
cell growth (DU145 cells): drastic inhibition of cell growth
cell growth upon overexpression of MYC ([3]; MYC-overexpressing DU145 cells, same low dose of I3C): became sensitized
cell growth of control cells ([3]; vector control DU145 cells, low dose of I3C): little effect on the cell growth
prostate sphere-forming ability (Hi-Myc prostate spheres): drastically suppressed
AKT activation driven by MYC expression ([4]; Hi-Myc prostate spheres): abolished AKT activation
apoptosis in Hi-Myc prostate spheres ([4]; Hi-Myc prostate spheres): concomitant apoptosis
AKT activation and apoptosis in WT prostate spheres ([4]; WT prostate spheres): not in WT prostate spheres
